ChEMBL document CHEMBL1201862, “PubChem BioAssay data set” (2004)
Active and inactive are the calls of the source.

Tests used:
Estrogen receptor = target: T1, Estrogen receptor (Homo sapiens, UniProt P03372);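 note: potency for inhibiting coactivator peptide recruitment to the receptor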
T1 sequence (P03372 whole entry): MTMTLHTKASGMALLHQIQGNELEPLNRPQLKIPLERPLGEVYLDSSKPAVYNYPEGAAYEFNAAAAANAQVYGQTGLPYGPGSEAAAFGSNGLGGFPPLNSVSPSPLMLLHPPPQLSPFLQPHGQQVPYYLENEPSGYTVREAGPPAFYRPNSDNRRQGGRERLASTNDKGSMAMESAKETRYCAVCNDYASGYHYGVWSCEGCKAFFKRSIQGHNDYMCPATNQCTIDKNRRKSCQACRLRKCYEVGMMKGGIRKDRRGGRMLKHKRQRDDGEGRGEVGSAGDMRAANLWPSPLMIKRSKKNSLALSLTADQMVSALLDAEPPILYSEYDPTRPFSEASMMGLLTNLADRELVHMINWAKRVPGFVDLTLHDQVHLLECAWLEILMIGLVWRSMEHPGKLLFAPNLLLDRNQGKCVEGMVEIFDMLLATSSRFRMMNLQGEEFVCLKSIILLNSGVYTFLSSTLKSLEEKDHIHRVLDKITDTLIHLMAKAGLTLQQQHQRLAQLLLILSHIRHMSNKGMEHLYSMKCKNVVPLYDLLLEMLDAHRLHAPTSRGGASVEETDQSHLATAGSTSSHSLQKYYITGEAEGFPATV

HEK293 [1] = assay: NOD1 signaling inhibitors, primary screen, cell-based, luminescence, uHTS (AID 1578); assay type: functional; details: Homo sapiens
HEK293 [2] = assay: cells; assay type: functional, cell-based; details: Homo sapiens
HEK293 [3] = assay: cells; assay type: functional, cell-based; details: Homo sapiens; remark: listed apart in the source
[4] = target: Nucleotide-binding oligomerization domain-containing protein 2 (Homo sapiens, UniProt Q9HC29); assay: NOD2 signaling inhibitors, cell-based, luminescence, uHTS, HEK293 (AID 1566); assay type: functional
HEK293 [5] = assay: NOD2 signaling inhibitors in MDP-stimulated cells, cell-based, uHTS, luminescence (AID 2001); assay type: functional; details: Homo sapiens
HEK293 [6] = assay: cells; assay type: functional, cell-based; details: Homo sapiens; remark: listed apart in the source
[7] = target: T2, Short transient receptor potential channel 4 (Mus musculus, UniProt Q9QUQ5); assay: mouse TRPC4 channel inhibitors, dose response, cell-based, HEK293 TRPC4/mu-opioid, Fluo-4 calcium (AID 434942); assay type: functional;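 note: potency of inhibitors blocking the TRPC4 calcium response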
T2 sequence (Q9QUQ5 whole entry): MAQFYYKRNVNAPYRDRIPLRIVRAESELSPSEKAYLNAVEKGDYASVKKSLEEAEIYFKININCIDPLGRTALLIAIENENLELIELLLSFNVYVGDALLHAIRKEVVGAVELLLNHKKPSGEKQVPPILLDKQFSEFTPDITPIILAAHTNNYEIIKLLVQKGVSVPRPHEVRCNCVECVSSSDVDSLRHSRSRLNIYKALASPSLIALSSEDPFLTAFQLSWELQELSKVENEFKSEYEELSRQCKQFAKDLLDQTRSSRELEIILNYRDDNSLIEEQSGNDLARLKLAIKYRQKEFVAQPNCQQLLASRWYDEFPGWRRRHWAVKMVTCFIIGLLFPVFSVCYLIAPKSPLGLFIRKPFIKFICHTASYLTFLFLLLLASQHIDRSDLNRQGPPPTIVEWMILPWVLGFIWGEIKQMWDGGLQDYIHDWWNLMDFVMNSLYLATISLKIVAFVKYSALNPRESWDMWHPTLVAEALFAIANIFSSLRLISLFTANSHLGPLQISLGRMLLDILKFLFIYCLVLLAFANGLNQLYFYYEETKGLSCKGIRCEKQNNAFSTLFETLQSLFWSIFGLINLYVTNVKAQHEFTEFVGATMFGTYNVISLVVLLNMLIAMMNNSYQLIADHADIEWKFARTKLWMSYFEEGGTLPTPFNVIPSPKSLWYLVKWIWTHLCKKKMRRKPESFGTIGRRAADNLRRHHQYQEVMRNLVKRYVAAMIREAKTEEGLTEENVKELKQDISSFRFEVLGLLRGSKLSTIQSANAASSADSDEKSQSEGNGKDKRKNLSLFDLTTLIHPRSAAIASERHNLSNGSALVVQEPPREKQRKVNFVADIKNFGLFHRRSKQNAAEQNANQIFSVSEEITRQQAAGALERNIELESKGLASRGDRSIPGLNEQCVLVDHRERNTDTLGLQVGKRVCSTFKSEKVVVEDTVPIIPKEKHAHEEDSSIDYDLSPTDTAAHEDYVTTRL

Cytochrome P450 2D6 = Cytochrome P450 2D6 (Homo sapiens, UniProt P10635);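 note: CYP2D6 member of a cytochrome P450 panel assay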
Cytochrome P450 2C9 = Cytochrome P450 2C9 (Homo sapiens, UniProt P11712)
[8] = THP-1 cell cytotoxicity, dose response, cytotoxicity control for Vif-APOBEC3G degradation inhibitor project, THP-1 cells (AID 1117359); assay type: functional; details: Human immunodeficiency virus 1, THP-1
[9] = THP-1 cell cytotoxicity, dose response, cytotoxicity control for non-replicating M. tuberculosis project (AID 489025); assay type: functional
[10] = Vero E6 cell cytotoxicity, dose response, cytotoxicity control for non-replicating M. tuberculosis project, secondary assay (AID 492998); assay type: functional, VeroE6; details: Vero C1008
cells = assay type: functional
[11] = inhibitors of intracellular T. cruzi replication, confirmation, NIH3T3 host cells, beta-gal luminescence (AID 2044); assay type: functional, cell-based;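 note: intracellular parasites grown in NIH/3T3 mouse fibroblasts as host cells; luminescent beta-galactosidase reporter signal from transgenic T. cruzi replicating inside host cells; inhibitors lower the luminescence signal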
[12] = cytotoxicity toward NIH3T3 fibroblasts, dose response, counter-screen, cell-based, ATP luminescence, mouse fibroblasts (AID 2010); assay type: functional;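 note: cells exposed to compound for about 90 hours before reading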
[13] = P. falciparum 3D7-ScDHODH growth inhibitors, dose response, SYBR Green, dry powder samples (AID 1159570); assay type: functional, cell-based;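 note: parasite growth measured after 72 hours of compound exposure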
[14] = HepG2 cell cytotoxicity, dose response, cytotoxicity control, plate reader, dry powder samples (AID 1159569); assay type: functional, cell-based;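 note: inhibitor potency with signal falling toward the positive control level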
[15] = P. falciparum Dd2 growth inhibitors, dose response, SYBR Green, cherry-picked samples (AID 1159567); assay type: functional, cell-based
[16] = P. falciparum Dd2 growth inhibitors, dose response, SYBR Green, dry powder samples (AID 1159566); assay type: functional, cell-based;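 note: potency for growth inhibition with lower SYBR green DNA signal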
[17] = HepG2 cell cytotoxicity, dose response, cytotoxicity control, cherry-picked samples (AID 1159577); assay type: functional, cell-based
[18] = P. falciparum ATP4 D1247Y mutant growth inhibitors, dose response, NITD609-resistant line, SYBR Green, dry powder (AID 1159571); assay type: functional, cell-based;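 note: parasites synchronized at ring stage by sorbitol before testing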

Sequence of Nucleotide-binding oligomerization domain-containing protein 2 (Q9HC29 whole entry, the tested form may be a part): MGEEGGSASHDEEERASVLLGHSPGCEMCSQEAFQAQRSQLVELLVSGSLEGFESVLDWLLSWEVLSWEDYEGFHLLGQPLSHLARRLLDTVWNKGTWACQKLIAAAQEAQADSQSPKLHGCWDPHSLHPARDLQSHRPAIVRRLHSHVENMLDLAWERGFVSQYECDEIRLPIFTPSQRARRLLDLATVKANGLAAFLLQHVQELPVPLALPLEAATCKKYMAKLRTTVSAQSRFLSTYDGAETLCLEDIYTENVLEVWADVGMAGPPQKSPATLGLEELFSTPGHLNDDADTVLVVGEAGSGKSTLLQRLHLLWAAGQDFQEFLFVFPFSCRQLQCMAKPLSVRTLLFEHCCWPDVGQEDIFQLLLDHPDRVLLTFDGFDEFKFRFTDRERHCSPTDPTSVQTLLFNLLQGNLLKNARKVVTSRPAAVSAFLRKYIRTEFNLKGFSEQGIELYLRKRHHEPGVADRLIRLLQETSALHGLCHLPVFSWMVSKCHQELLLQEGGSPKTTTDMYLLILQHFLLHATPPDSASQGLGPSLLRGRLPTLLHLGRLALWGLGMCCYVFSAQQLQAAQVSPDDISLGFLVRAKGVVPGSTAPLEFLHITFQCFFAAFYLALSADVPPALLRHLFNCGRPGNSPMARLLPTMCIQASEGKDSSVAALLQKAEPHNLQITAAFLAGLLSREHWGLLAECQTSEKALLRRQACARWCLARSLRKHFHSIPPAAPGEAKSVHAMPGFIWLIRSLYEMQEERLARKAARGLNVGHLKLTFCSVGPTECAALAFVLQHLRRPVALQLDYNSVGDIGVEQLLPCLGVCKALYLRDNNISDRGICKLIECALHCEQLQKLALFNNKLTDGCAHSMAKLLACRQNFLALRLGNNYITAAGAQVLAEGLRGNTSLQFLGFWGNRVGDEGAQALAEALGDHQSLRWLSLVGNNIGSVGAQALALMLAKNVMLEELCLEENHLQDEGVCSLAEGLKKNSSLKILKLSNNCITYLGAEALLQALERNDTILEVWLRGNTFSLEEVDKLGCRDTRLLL
Sequence of Cytochrome P450 2D6 (P10635 whole entry): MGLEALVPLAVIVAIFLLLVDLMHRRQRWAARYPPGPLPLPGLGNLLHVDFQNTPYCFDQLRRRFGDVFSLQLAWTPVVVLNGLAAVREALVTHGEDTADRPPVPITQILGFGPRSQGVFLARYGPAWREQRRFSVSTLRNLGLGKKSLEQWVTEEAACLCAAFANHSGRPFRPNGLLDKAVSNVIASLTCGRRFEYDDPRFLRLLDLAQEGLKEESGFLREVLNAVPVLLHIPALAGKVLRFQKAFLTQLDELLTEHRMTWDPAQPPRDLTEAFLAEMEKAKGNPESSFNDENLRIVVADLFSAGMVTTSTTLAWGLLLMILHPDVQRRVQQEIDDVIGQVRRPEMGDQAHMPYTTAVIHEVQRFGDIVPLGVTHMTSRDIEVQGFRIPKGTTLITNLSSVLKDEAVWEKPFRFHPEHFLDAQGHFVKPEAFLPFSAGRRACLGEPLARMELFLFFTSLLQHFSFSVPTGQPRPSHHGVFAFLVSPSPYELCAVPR
Sequence of Cytochrome P450 2C9 (P11712 whole entry): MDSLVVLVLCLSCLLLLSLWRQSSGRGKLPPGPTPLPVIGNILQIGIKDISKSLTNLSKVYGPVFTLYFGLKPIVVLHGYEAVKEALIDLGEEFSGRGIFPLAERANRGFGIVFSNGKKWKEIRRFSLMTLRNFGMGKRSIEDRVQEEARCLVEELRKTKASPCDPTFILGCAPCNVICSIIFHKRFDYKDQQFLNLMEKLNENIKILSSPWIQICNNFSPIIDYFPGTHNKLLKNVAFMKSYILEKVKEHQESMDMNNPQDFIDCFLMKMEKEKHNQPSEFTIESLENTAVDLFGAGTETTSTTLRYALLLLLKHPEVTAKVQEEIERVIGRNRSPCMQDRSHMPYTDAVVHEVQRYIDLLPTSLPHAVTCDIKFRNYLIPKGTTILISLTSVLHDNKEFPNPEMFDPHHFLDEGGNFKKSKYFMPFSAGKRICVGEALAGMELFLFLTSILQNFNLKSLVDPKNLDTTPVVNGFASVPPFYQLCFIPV

COc1ccc(-n2nc(C(=O)Nc3ccc(OC)c(OC)c3)c3c4ccccc4n(C)c3c2=O)cc1
IC50 (Estrogen receptor): > 50 µM (not active)

COc1ccc(C)cc1NC(=O)CSc1ccc(-c2sc(C)nc2C)nn1
EC50 (HEK293 [1]): 9.47 µM (active) | IC50 (HEK293 [2]): 14.1 µM (active) | IC50 (HEK293 [3]): > 20 µM (inactive) | EC50 [4]: 4.63 µM (active) | IC50 (HEK293 [5]): 10.7 µM (inactive) | IC50 (HEK293 [6]): > 20 µM (inactive)

c1ccc2[nH]c(CCCCc3nc4ccccc4[nH]3)nc2c1
EC50 [7]: 2.37 µM (active)

CCN(CC)c1nc2ccccc2[nH]1.Cl
AC50 (Cytochrome P450 2D6): 25.1 µM (inconclusive) | AC50 (Cytochrome P450 2C9): inconclusive

CS(=O)(=O)N(CC(=O)NCc1ccco1)c1ccc2c(c1)OCO2
IC50 (Estrogen receptor): 40.1 µM (not active)

CC(OC(=O)c1cccc(O)c1)C(=O)N(C)Cc1ccccc1 (centres undefined)
CC50 [8]: > 40 µM (active)

CCOC(=O)C1=C(C)C/C(=N\NC(=O)c2ccccc2O)CC1
CC50 [9]: 21.8 µM (active) | CC50 [10]: 15.3 µM (active) | IC50 (cells): 10.8 µM (active)

O=C(N/N=C/c1ccc([N+](=O)[O-])s1)c1cccnc1
EC50 [11]: 0.429 µM (active) | EC50 [12]: > 60 µM (not active) | CC50 [9]: 14.9 µM (active) | CC50 [10]: 14.6 µM (active) | IC50 (cells): 11.2 µM (active)

COc1ccccc1CN1C[C@@H]2N[C@H](C1)[C@@H]2c1ccc(-c2ccc(C#N)cc2)cc1
AC50 [13]: 2.39 µM (active) | AC50 [14]: 7.43 µM (active) | AC50 [15]: 2.36 µM (active) | AC50 [16]: 1.68 µM (active) | AC50 [17]: 13.7 µM (active) | AC50 [18]: 2.8 µM (active)

Clc1ccc(Nc2nc(-c3ccncc3)cs2)cc1
IC50 (Estrogen receptor): 18.2 µM (active) | EC50 [11]: 0.329 µM (active) | EC50 [12]: 4 µM (active)
